How the values were obtained:
Assay type in all cases: in vivo, human
[1] = test system: cervix; assay: Single dose cervical application study: safety (adverse events, pelvic and colposcopic examination)
Protocol: (§1) This was a single dose, randomized, double-blind, placebo controlled dose escalation study which evaluated five doses of imiquimod. 50, 100, 150, 200 and 250 mg of imiquimod in a cream formulation were applied to the cervix for eight hours. Each dose group was composed of 8 subjects (6 active and 2 placebo), with two subjects treated as dose leaders, and the remaining six subjects were treated after an acceptable response by the dose leaders. Safety was assessed by adverse events (AE's), laboratory tests, and colposcopy with photodocumentation of the cervix at pre-dose and 24 hours post-dose, and 48 hours post-dose if required. Systemic exposure (PK) was determined by measuring imiquimod and metabolites through 48 hours post-dose and the PD response was determined by serum analysis for the cytokines: tumor necrosis factor-α (TNF-α), interferon-α (IFN-α), interleukin-1 receptor […] (IL-1RA), interleukin-6 (IL-6), neopterin (NPT) and 2′5′ oligoadenlyate synthetase (2′5′ AS) during dosing and selected times during the 48 hours post-dose. Statistical tests to evaluate AE's and demographics, laboratory tests, vital signs and ECG's were Fisher's Exact, Wilcoxon Rank-Sum and Kruskall Wallis Tests respectively. Cytokine changes between dose groups were compared using Wilcoxon Rank-Sum and changes from baseline were evaluated using Spearman Rank Correlation.

[2] = Single dose cervical application study: systemic exposure (PK) of imiquimod in serum
Protocol: as §1

[3] = test system: serum cytokines (TNF-α, IFN-α, IL-1RA, IL-6, NPT, 2′5′ AS); assay: Single dose cervical application study: PD response by serum analysis for cytokines
Protocol: as §1

[4] = single doses up to 250 mg applied to the cervix for 8 hours, healthy volunteers
[5] = serum, 150 mg, 200 mg and 250 mg groups

With `CC(C)Cn1cnc2c(N)nc3ccccc3c21` [imiquimod, 1-(2-methylpropyl)-1H-imidazo[4,5-c] quinolin-4-amine] the “time to resolution of cervical reactions” value ([1]; 250 mg dose group) was no more than 48 h, the “subjects experiencing cervical changes of minor small vesicles or smaller ulcer” value ([1]; 250 mg dose group, pelvic and colposcopic examination) was 2 of 6 and the overall safety [1, 4] was “safe”. The “serum levels of imiquimod” value ([2]; single dose 50-250 mg imiquimod cream (Formulation A) applied to the cervix for 8 hours, through 48 hours post-dose, quantifiable >5 ng/ml) was no more than 5 ng/mL, the systemic exposure [2, 4] was “minimal systemic exposure” and the “systemic concentration of certain cytokines” value ([3]; cervical application of a dose ≧150 mg) was “increases”. The “2′5′ AS change from baseline” value [3, 5] was “Significant changes from baseline”, the “IL-1RA change from baseline” value [3, 5] was “Significant changes from baseline” and the “NPT (neopterin) change from baseline” value [3, 5] was “Significant changes from baseline”. For the same molecule, the “IFN change from baseline” value ([3]; serum, 250 mg group) was “Significant changes from baseline” and the “IL-6 change from baseline” value ([3]; serum, 250 mg group) was “Significant changes from baseline”.

Reference: patent US6706728B2, “Systems and methods for treating a mucosal surface” (3M Innovative Properties Company, priority 1999, dated 2004)
